In EP3324923B1, “COMPOSITIONS AND METHODS USING PALYTHINE” (King's College London, priority 2015, dated 2017):

Legend:
HaCaT cells = assay: UVR induced gene expression by qPCR (TaqMan, ΔΔCT); type: cell-based, human
Description: The gene expression analysis was performed on HaCat cells exposed as previously described. Following irradiation growth media was replaced RNA extraction was carried out 12 hours later. RNA extraction was carried out using the mirVana miRNA Isolation kit (Life Technologies, Paisley, UK) according to the manufacturers protocol for total RNA extraction. RNA quality was tested using RNA 6000 Nano Kit according to the manufacturers instruction.
Total RNA was then converted to cDNA using the High Capacity cDNA Reverse Transcription Kit (Applied Biosystems, Paisley, UK) according to manufacturers instructions. qPCR was performed using TaqMan Gene Expression Assays (Applied Biosystems) according to the manufacturers protocol with the following TaqMan FAM labelled DNA probes IL-20, IL-8, IL-6, TFRC, HMOX-1, MMP-3, MMP-12. VIC labelled GAPDH was used as the housekeeping gene. For each gene the fold change was measured using the ΔΔCT method.
Cells irradiated with 5J/cm^2 SSR with 0%, 0.3%, 4% and 10% palythine. RNA was extracted, cDNA synthesised, and gene expression analysed by qCR. […] The mean fold change ± SD was analysed with n≥3. The difference compared to 0% irradiated sample was analysed using ANOVA. Significance is expressed by *.
Cells irradiated with 5J/cm^2 SSR with 0%, 0.3% & 4% palythine or Helionori. RNA was extracted, cDNA synthesised, and gene expression analysed by qPCR. Data presented in figure 13 show the protection offered by palythine according to the invention compared with protection offered by prior art composition Helionori, as assessed by UVR induced gene expression.
(§1) DNA damage was then measured using the comet assay and IHC-IF looking at the specific DNA lesions of cyclobutane pyrimidine dimers (CPD) and 8-oxoGua. A percentage reduction in general and specific DNA damage was then determined by comparing cells irradiated with and without sunscreen compositions. Antioxidant ability was detected using H2DCFDA, which fluoresces when reacting with ROS with the addition of palythine post exposure. SSR induced gene expression covering a range of different markers (inflammation, photoageing, oxidative damage) was assessed using qPCR. The ability of palythine to reduce this gene expression was then assessed.

HaCaT keratinocytes = assay: Reactive oxygen species assay by FACS (carboxy-H2DCFDA), UV filtering and antioxidant effect, Example 16; type: cell-based, human; details: for ROS production compared to irradiated control: 20J/cm^2 of SSR, n=5, p<0.0001
Description: as §1
All assays were performed on HaCat cells grown as a 70-80 % confluent monolayer in multiwell plates. They were washed three times in PBS and covered with palythine dissolved in PBS at differing concentrations (0, 0.1, 0.3 %, 4 % and 10 % w/v). The cells were then irradiated with either SSR or UVA radiation (5-20 J/cm^2 or 20 J/cm^2 respectively). After irradiation the palythine solution was removed and the cells washed a further three times and replaced in media or processed immediately depending on the experimental design.
HaCat cells were irradiated as above or for the anti-oxidant studies, cells were also incubated with palythine post irradiation. Cells were then incubated with 10uM carboxy-H2DCFDA (Invitrogen, UK) in PBS for 30 mins in the dark at 37 °C, 5 % CO2. Cells were washed in PBS, trypsinised for 10 minutes at 37 °C, centrifuged at 1200 rpm for 5 minutes at room temperature and resuspended in PBS and counterstained with DAPI for analysis by FACS. This was carried out with a Becton Dickinson FACSAria II. Cells were gated to only analyse live cells (DAPI negative) and the average mean green intensity per condition was then plotted from at least 10,000 measured events. Analysis was carried out using FlowJo 8.7 (USA).

[1] = Figure 8, RNA extraction 12 hours after irradiation, gene not responsive to UVR

With COC1=C(NCC(=O)O)CC(O)(CO)CC1=N (stereo not drawn) [palythine] the “protection, UVR induced gene expression (decrease compared to the irradiated control)” value (HaCaT cells; 0.3% palythine, 5J/cm^2 SSR, figure 13) was “significant protection”, the HMOX-1 gene expression (HaCaT cells; 0.3 % palythine, Figure 8, compared to the control) was “significantly reduced” and the “MMP-12 gene expression compared to the control” value (HaCaT cells; [1]) was “no effect”. The “TFRC gene expression compared to the control” value (HaCaT cells; [1]) was “no effect”, the “expression of the genes compared to the irradiated control (containing no sunscreen)” value (HaCaT cells; IL-20, IL-6, IL-8, MMP-3, HMOX-1, 5J/cm^2 SSR, 0.3% & 4%) was “significant reduction” and the “SSR induced differential gene expression for all markers investigated” value (HaCaT cells; palythine at 0.3% or greater, all concentrations, p=<0.05) was “significantly reduced”. For the same molecule, the “ROS production compared to irradiated control” value (HaCaT keratinocytes; 10% palythine post exposure (anti-oxidant)) was “significant reduction”, the “ROS production compared to irradiated control” value (HaCaT keratinocytes; palythine 0.3-10%w/v added pre exposure) was “significant reduction” and the “ROS production due to SSR irradiation (anti-oxidant properties)” value (HaCaT keratinocytes; Example 14, H2DCFDA, addition of palythine post exposure, p=<0.05) was “significant reduction”.
